Format in all cases: cell-based
The test system of one test is NCI-H23. The test is described as follows: Proliferation inhibition, non-small cell lung cancer cell line NCI-H23. As to conditions: Homo sapiens, NCI-H23, 72 h. The procedure:
(§1) Sixteen non-small cell lung cancer cell lines, including NCI-H1792, NCI-H1703, NCI-H441, SNU-761, NCI-H1975, NCI-H358, NCI-H1838, NCI-H1915, A549, SK-MES-1, NCI-H292, PC-9, NCI-H460, NCI-H23, NCI-H1581, and HLF, were used for the proliferation inhibition assay of the present invention compound. […] The cell detection equipment used was In Cell Analyzer 2200 (GE Healthcare).
(§2) With 60 μM as the initial concentration, ten points were obtained by serial five-fold dilution.
(§3) Each kind of cell in logarithmic growth phase was inoculated with 4000 cells/100 μl/well into a black transparent bottom 96-well plate and cultured overnight at 37° C. The next day, the plate was taken out, and 20 μL of the prepared sample dilutions was added to each well. The plate was then subjected to treatment at 37° C. for 72 hours. After the treatment period of 72 hours, the plate was taken out and 50 μL of neutral formaldehyde fixative (formaldehyde: PBS=1:9, 50 μl/well) was added to each well. The plate was then fixed at room temperature for 10-30 minutes. Subsequently, the wells were washed twice with 1× PBS (100 μl/well) and treated with 0.2% Triton™-X100 for 5-10 minutes to permeabilize the cells. […] The inhibitory rates of each compound at different concentration points were calculated by using the following formula, and IC50 values were obtained through curve fitting using GraphPad Prism 6.0 software.

Another test has as its system NCI-H1838. The test is described as follows: Proliferation inhibition, non-small cell lung cancer cell line NCI-H1838. The following applies: Homo sapiens, NCI-H1838, 72 h. The procedure: as §1, §2, §3
The next test deals with NCI-H1703. Kind of test: Proliferation inhibition, non-small cell lung cancer cell line NCI-H1703. The following applies: Homo sapiens, NCI-H1703, 72 h. The procedure: as §1, §2, §3
A further test has as its system NCI-H1581. The test is described as follows: Proliferation inhibition, non-small cell lung cancer cell line NCI-H1581. As to conditions: Homo sapiens, NCI-H1581, 72 h. The procedure:
as §1, §2, §3

The test system of a further test is U118MG cells. Kind of test: Proliferation inhibition of human glioblastoma cells U118MG (DAPI cell count, 72 h). The following applies: U-118-MG, 72 h treatment. The procedure: Human glioblastoma cell U118MG was purchased from NANJING COBIOER BIOSCIENCES CO., LTD. […] The cell detection equipment used was the In Cell Analyzer 2200 (GE Healthcare).
as §2
Medium for U118 MG is the MEM (low glucose) medium supplemented with 10% FBS, 1% penicillin/streptomycin, 1% sodium pyruvate, and 1% MEM NEAA. U118 MG cells were seeded at a density of 4000 cells/100 μL/well in a 96-well black clear-bottom plate and incubated at 37° C. overnight. The plate was then taken, and 20 μL of the prepared diluted samples was added to the wells. The cells were treated at 37° C. for 72 hours. After 72 hours, the plate was taken, and a neutral formaldehyde fixation solution (formaldehyde:PBS=1:9) was added at 50 μL/well. The cells were fixed at room temperature for 10-30 minutes. The wells were washed twice with 1× PBS (100 μL/well), and then permeabilized with 0.2% Triton™-X100 for 5-10 minutes (100 μL/well). […] The plate was scanned by using an In Cell Analyzer, and the number of cells in each well was analyzed. The inhibition rate of each compound at various concentration points was calculated by using the formula provided. The IC50 values were determined by curve fitting using GraphPad Prism 6.0 software.

The next test relates to A549. Kind of test: Proliferation inhibition, non-small cell lung cancer cell line A549. The following applies: Homo sapiens, A549, 72 h. The procedure: as §1, §2, §3
A further test has as its system NCI-H1915. The test is described as follows: Proliferation inhibition, non-small cell lung cancer cell line NCI-H1915. As to conditions: Homo sapiens, NCI-H1915, 72 h. The procedure:
as §1, §2, §3

For another test, the system named is NCI-H1975. The test is described as follows: Proliferation inhibition, non-small cell lung cancer cell line NCI-H1975. The following applies: Homo sapiens, NCI-H1975, 72 h. The procedure:
as §1, §2, §3

The next test deals with NCI-H1792. The test is described as follows: Proliferation inhibition, non-small cell lung cancer cell line NCI-H1792. As to conditions: Homo sapiens, NCI-H1792, 72 h. The procedure: as §1, §2, §3
Another test has as its system SK-MES-1. The test is described as follows: Proliferation inhibition, non-small cell lung cancer cell line SK-MES-1. The following applies: Homo sapiens, SK-MES-1, 72 h. The procedure: as §1, §2, §3

The text below walks through data of patent US20250332167A1, “PHARMACEUTICAL USE OF CDK 4/6 INHIBITOR” (priority 2021, published 2025).

As a reminder, the IC50 is the concentration that gives 50% inhibition. Low values mean inhibition by little substance, high ones a need for much substance. Consider `CC1=Nc2c(F)cc(-c3nc(Nc4ccc(C5CCN(C)CC5)cn4)ncc3F)cc2C12CCCC2.O=C(O)/C=C/C(=O)O` [Compound A, Fumarate salt of 5-fluoro-4-(7′-fluoro-2′-methylspiro[cyclopentane-1,3′-indol]-5′-yl)-N-(5-(1-methylpiperidin-4-yl)pyridin-2-yl)pyrimidine-2-amine], for which the IC50 with NCI-H23 came out at 0.243 µM; in the test on NCI-H1838, 0.0479 µM; in the test on NCI-H1703, 0.003 µM; in the test on NCI-H1581, 1.12 µM; with U118MG cells, 0.0232 ± 0.0052 µM; in the test on A549, 0.066 µM. Also, the IC50 was 0.053 µM in the test on NCI-H1915, 0.01 µM in the test with NCI-H1975, 0.003 µM with NCI-H1792 and 0.067 µM with SK-MES-1.
